Experimental data from patent publication US20130164847A1, “USE OF A PROTEIN TYROSINE KINASE INHIBITOR FOR INDUCING THE DIFFERENTIATION OF MESENCHYMAL STEM CELLS INTO CARDIOGENIC CELLS” (PHARMICELL. CO., LTD., priority 2010, published 2013).

System: mesenchymal stem cells
Test: Sandwich ELISA of cTnT after ex vivo differentiation of rat MSCs by PTK inhibitor treatment
Format: cell-based
Conditions: rat MSCs cultured 9 days with 1 μM or 10 μM compound
Description: For the second subculture, MSCs were dispensed on a 60 mm plate at 2×10^5 cells/ml using the identical medium as above, treated with N-(3-bromophenyl)-6,7-diethoxyquinazoline-4-amine (Sigma), a protein tyrosine kinase (PTK) inhibitor, at a final concentration of 1 μM or 10 μM. The cells were cultured for 9 days, wherein the medium was replaced once every three days with a fresh medium containing the aforementioned compound.
100 ng of capture antibodies were bound to polyvinyl chloride (PVC) and microtiter high-binding plate (96 wells) at 4° C. overnight. The plate was washed twice with PBS, capture antibodies were blocked with PBS containing 5% BSA overnight under moist air at the room temperature. The plate was washed twice with PBS, and 5 ug of cell lysates together with blocking buffer was added to each well. The plate was incubated at 37° C. for 1.5 hours. The plate was washed 4 times with PBS containing 0.02% Tween-20. Upon adding detector antibodies, the plate was incubated under moist air and the room temperature for 2 hours, and washed 4 times with PBS containing 0.02% Tween-20. […] After 10 minutes, the reaction was stopped by adding 25 ul of 0.1M H2SO4, then the absorbance at 450 nm was immediately measured with an ELISA plate reader (Bio-Rad). […]

In the case of CCOc1cc2ncnc(Nc3cccc(Br)c3)c2cc1OCC [compound #23, N-(3-bromophenyl)-6,7-diethoxyquinazoline-4-amine], the “differentiation into myocardial cells (sandwich ELISA, FIG. 13)” value is reported as “increases depending on the concentration” and the “expression ratio of cardiac troponin T (cTnT)” value (sandwich ELISA, FIG. 13) is reported as “increasing expression ratio of cardiac troponin T (cTnT) by the method dependent on dosage”.
